# Like-named read-outs stand apart in the source and are kept apart here.
# Experiments:
# [1] = test system: mild to moderate asthma patients; details: placebo=0.35
# [2] = Shelf-life and storage stability of lidocaine formulations; assay type: physicochemical
# [3] = 100 mg in 2.5 ml of 40 mg/ml solution, PARI LC PLUS nebulizer; cited from earlier work
smiles,measurement,setting,value
"CCN(CC)CC(=O)Nc1c(C)cccc1C [lidocaine, acetamide 2-(diethylamino)-N-(2,6-dimethylphenyl)]","AQLQ environmental domain, mean change at week 12 from baseline","[1]; 10 mg lidocaine, p=0.012 v. placebo",2.09
same,"AQLQ environmental domain, mean change at week 12 from baseline","[1]; 40 mg lidocaine, p=0.01 v. placebo",2.45
same,stable without loss of strength,"[2]; 1%, 4% or 10% solution in Blow-Fill-Seal vials with overwrap, room temperature",9-12 months
same,shelf-life of the dry form,[2]; dry form,at least 2 years
same,"duration of oral numbing of lips, tongue and mucosa with impaired gag reflex following inhalation",[3],approximately 15 minutes

# Source: patent US8003081B2, “Method for improvement of tolerance for therapeutically effective agents delivered by inhalation” (priority 2004, dated 2011)
